From patent US20250064941A1, “SIGLEC LIGANDS, CONJUGATES, AND METHODS OF USE THEREOF” (Osprey Biopharmaceuticals, Inc., priority 2023, published 2025)

Key:
[1] = target: T1, mouse Siglec-2-Fc-Avi (CD22) (Mus musculus, UniProt P35329); test: SPR binding affinity to mouse CD22; settings: steady-state analysis
T1 construct: made in house
T1 sequence (P35329 22-708 limits assumed): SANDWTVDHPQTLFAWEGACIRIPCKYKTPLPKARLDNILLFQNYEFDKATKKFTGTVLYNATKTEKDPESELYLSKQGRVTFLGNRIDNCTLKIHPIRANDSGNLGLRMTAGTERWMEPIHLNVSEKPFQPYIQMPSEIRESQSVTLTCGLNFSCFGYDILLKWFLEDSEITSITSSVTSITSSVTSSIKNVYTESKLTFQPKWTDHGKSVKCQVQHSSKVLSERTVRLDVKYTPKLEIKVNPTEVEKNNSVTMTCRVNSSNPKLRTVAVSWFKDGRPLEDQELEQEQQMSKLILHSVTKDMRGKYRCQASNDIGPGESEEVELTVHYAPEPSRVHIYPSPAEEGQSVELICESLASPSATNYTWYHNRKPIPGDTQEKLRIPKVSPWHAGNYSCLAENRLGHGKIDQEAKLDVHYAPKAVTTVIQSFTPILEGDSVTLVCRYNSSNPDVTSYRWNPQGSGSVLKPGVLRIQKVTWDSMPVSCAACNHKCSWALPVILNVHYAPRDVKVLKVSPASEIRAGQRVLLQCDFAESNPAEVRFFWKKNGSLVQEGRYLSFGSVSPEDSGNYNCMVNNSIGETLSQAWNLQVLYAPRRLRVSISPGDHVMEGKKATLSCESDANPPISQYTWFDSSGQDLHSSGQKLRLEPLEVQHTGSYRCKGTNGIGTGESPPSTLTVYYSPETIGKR
Procedure, shortened: (§1)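 Using a Biacore 8K, compounds were tested against biotinylated CD22 captured after sialidase treatment. The running buffer held 1% DMSO, corrected with a 0.5–2% DMSO series. Affinity was derived by steady-state analysis.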

[2] = target: T2, human Siglec-2/CD22 protein (Homo sapiens, UniProt P20273); test: SPR binding affinity to human CD22; settings: steady-state analysis
T2 construct: purchased Acro Biosystems SI2-H82E3
T2 sequence (P20273 20-847): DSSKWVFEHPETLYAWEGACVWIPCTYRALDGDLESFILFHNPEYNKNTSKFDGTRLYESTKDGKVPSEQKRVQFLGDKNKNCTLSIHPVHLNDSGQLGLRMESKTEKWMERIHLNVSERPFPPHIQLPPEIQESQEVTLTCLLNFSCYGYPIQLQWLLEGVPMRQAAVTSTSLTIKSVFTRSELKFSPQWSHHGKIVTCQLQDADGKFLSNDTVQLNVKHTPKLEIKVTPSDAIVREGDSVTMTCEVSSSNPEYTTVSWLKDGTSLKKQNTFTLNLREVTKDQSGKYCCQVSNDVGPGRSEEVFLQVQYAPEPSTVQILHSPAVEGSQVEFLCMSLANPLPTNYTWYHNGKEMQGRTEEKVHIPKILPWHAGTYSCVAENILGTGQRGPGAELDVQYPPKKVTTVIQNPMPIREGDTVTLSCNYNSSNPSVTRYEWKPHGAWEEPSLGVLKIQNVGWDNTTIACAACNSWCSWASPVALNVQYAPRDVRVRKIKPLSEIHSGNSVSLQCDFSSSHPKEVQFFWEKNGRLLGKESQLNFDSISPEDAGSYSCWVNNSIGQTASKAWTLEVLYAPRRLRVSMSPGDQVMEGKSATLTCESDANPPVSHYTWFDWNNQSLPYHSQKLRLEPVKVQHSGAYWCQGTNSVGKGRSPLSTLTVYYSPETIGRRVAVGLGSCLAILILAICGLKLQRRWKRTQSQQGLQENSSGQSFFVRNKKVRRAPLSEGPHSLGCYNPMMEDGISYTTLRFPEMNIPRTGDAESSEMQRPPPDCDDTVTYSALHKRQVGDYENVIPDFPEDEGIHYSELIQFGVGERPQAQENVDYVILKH
Procedure, shortened: as §1

[3] = target: cynomolgus Siglec-2/CD22 (Macaca fascicularis, UniProt A0A2K5WCZ6); test: biochemical; type: binding; settings: SPR, steady-state analysis; read-out: Affinity cyno CD22
Procedure, shortened: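 Compound binding measured by steady-state SPR analysis, 120 s dissociation, in HEPES-NaCl-Tween buffer pH 7.5 containing 1% DMSO, DMSO solvent-corrected. Surface: cyno CD22, sialic acids first stripped by SialoExo for 4 h at 37° C., then amine-coupled onto CM5.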

Sequence of cynomolgus Siglec-2/CD22 (A0A2K5WCZ6 entry or part of it): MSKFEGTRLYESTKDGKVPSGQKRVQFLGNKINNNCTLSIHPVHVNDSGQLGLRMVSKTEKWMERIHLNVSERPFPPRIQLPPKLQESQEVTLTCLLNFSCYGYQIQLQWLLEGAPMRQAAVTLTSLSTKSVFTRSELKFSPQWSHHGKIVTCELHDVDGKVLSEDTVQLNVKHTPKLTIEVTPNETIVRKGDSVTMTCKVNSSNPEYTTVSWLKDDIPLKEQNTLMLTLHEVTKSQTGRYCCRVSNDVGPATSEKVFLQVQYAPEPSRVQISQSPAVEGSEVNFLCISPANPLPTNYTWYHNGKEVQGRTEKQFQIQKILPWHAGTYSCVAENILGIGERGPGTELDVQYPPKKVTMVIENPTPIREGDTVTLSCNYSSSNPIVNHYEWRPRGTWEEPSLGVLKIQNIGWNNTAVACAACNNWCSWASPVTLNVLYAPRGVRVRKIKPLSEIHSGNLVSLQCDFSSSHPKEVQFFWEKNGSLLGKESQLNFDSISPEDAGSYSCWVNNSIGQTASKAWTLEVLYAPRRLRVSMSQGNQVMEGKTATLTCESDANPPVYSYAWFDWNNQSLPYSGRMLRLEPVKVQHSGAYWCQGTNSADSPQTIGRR

Row | Kd [1] [nM] | Kd [2] [nM] | Kd [3] [nM] | SMILES
1 | < 1000 | 1000 to 10000 | < 1000 | C#CCOCCCCCCO[C@]1(C(=O)O)C[C@H](O)[C@@H](NC(=O)C(O)CO)[C@H]([C@H](O)[C@H](O)CNC(=O)Cc2ccc(Cl)cc2)O1 (stereo partly drawn) [Compound 210, (2R,4S,5R,6R)-6-((1R,2R)-3-(2-(4-chlorophenyl)acetamido)-1,2-dihydroxypropyl)-5-(2,3-dihydroxypropanamido)-4-hydroxy-2-((6-(prop-2-yn-1-yloxy)hexyl)oxy)tetrahydro-2H-pyran-2-carboxylic acid]
2 | < 1000 | 1000 to 10000 | 1000 to 10000 | C#CCOCCOCCO[C@]1(C(=O)O)C[C@H](O)[C@@H](NC(=O)CO)[C@H]([C@H](O)[C@H](O)CNC(=O)Cc2ccc(O)cc2)O1 [Compound 153, (2R,4S,5R,6R)-6-((1R,2R)-1,2-dihydroxy-3-(2-(4-hydroxyphenyl)acetamido)propyl)-4-hydroxy-5-(2-hydroxyacetamido)-2-(2-(2-(prop-2-yn-1-yloxy)ethoxy)ethoxy)tetrahydro-2H-pyran-2-carboxylic acid]
3 | 1000 to 10000 | < 1000 | < 1000 | O=C(O)CCCCCO[C@]1(C(=O)O)C[C@H](O)[C@@H](NC(=O)CO)[C@H]([C@H](O)[C@H](O)CNC(=O)Cc2ccc(Cl)cc2)O1 [Compound 121, (2R,4S,5R,6R)-2-((5-carboxypentyl)oxy)-6-((1R,2R)-3-(2-(4-chlorophenyl)acetamido)-1,2-dihydroxypropyl)-4-hydroxy-5-(2-hydroxyacetamido)tetrahydro-2H-pyran-2-carboxylic acid]
4 | 1000 to 10000 | < 1000 | < 1000 | C#CCOCCCCCCC(O)[C@]1(C(=O)O)C[C@H](O)[C@@H](NC(=O)CO)[C@H]([C@H](O)[C@H](O)CNC(=O)Cc2ccc(Cl)cc2)O1 (stereo partly drawn) [Compound 103, (2S,4S,5R,6R)-6-((1R,2R)-3-(2-(4-chlorophenyl)acetamido)-1,2-dihydroxypropyl)-4-hydroxy-2-(1-hydroxy-7-(prop-2-yn-1-yloxy)heptyl)-5-(2-hydroxyacetamido)tetrahydro-2H-pyran-2-carboxylic acid]
5 | 1000 to 10000 | 1000 to 10000 | 1000 to 10000 | C#CCCOc1ccc(CO[C@]2(C(=O)O)C[C@H](O)[C@@H](NC(=O)CO)[C@H]([C@H](O)[C@H](O)CNC(=O)Cc3ccccc3NC(C)=O)O2)cc1 [Compound 163, (2R,4S,5R,6R)-6-((1R,2R)-3-(2-(2-acetamidophenyl)acetamido)-1,2-dihydroxypropyl)-2-((4-(but-3-yn-1-yloxy)benzyl)oxy)-4-hydroxy-5-(2-hydroxyacetamido)tetrahydro-2H-pyran-2-carboxylic acid]
6 | < 1000 | < 1000 | < 1000 | C#CCOCCCCCCO[C@]1(C(=O)O)C[C@H](O)[C@@H](NC(=O)CO)[C@H]([C@H](O)[C@H](O)CNC(=O)Cc2ccc(C(C)C)cc2)O1 [Cpd. 159, (2R,4S,5R,6R)-6-((1R,2R)-1,2-dihydroxy-3-(2-(4-isopropylphenyl)acetamido)propyl)-4-hydroxy-5-(2-hydroxyacetamido)-2-((6-(prop-2-yn-1-yloxy)hexyl)oxy)tetrahydro-2H-pyran-2-carboxylic acid]
7 | < 1000 | < 1000 | < 1000 | C#CCOCCCCCCO[C@]1(C(=O)O)C[C@H](O)[C@@H](NC(=O)CO)[C@H]([C@H](O)[C@H](O)CNC(=O)Cc2ccc(-c3ccc4[nH]cc(C)c4c3)cc2)O1 [Compound 1, (2R,4S,5R,6R)-6-((1R,2R)-1,2-dihydroxy-3-(2-(4-(3-methyl-1H-indol-5-yl)phenyl)acetamido)propyl)-4-hydroxy-5-(2-hydroxyacetamido)-2-((6-(prop-2-yn-1-yloxy)hexyl)oxy)tetrahydro-2H-pyran-2-carboxylic acid]
8 | 1000 to 10000 | 1000 to 10000 | 1000 to 10000 | C#CCCOc1ccc(CO[C@]2(C(=O)O)C[C@H](O)[C@@H](NC(=O)CO)[C@H]([C@H](O)[C@H](O)CNC(=O)C3(c4ccc(C(F)(F)F)cc4)CCOCC3)O2)cc1 [Compound 170, (2R,4S,5R,6R)-2-((4-(but-3-yn-1-yloxy)benzyl)oxy)-6-((1R,2R)-1,2-dihydroxy-3-(4-(4-(trifluoromethyl)phenyl)tetrahydro-2H-pyran-4-carboxamido)propyl)-4-hydroxy-5-(2-hydroxyacetamido)tetrahydro-2H-pyran-2-carboxylic acid]
9 | > 10000 | 1000 to 10000 | 1000 to 10000 | CC(=O)NCCOCCOCCOCCOCCNc1c(NCCCCCCO[C@]2(C(=O)O)C[C@H](O)[C@@H](NC(C)=O)[C@H]([C@H](O)[C@H](O)CNC(=O)c3cccc(Cl)c3)O2)c(=O)c1=O [Compound 273, (2R,4S,5R,6R)-5-acetamido-6-((1R,2R)-3-(3-chlorobenzamido)-1,2-dihydroxypropyl)-2-((6-((3,4-dioxo-2-((2-oxo-6,9,12,15-tetraoxa-3-azaheptadecan-17-yl)amino)cyclobut-1-en-1-yl)amino)hexyl)oxy)-4-hydroxytetrahydro-2H-pyran-2-carboxylic acid]
10 | 1000 to 10000 | 1000 to 10000 | 1000 to 10000 | C#CCCOc1ccc(CO[C@]2(C(=O)O)C[C@H](O)[C@@H](NC(=O)CO)[C@H]([C@H](O)[C@H](O)CNC(=O)C(OC)(c3ccccc3)C(F)(F)F)O2)cc1 (stereo partly drawn) [Compound 171, (2R,4S,5R,6R)-2-((4-(but-3-yn-1-yloxy)benzyl)oxy)-6-((1R,2R)-1,2-dihydroxy-3-(3,3,3-trifluoro-2-methoxy-2-phenylpropanamido)propyl)-4-hydroxy-5-(2-hydroxyacetamido)tetrahydro-2H-pyran-2-carboxylic acid]
11 | > 10000 | < 1000 | 1000 to 10000 | C#CCOCCOCCO[C@]1(C(=O)O)C[C@H](O)[C@@H](NC(=O)CO)[C@H]([C@H](O)[C@H](O)CNC(=O)c2cc3c(s2)-c2ccccc2OC3)O1 [Compound 179, (2R,4S,5R,6R)-6-((1R,2R)-1,2-dihydroxy-3-(4H-thieno[3,2-c]chromene-2-carboxamido)propyl)-4-hydroxy-5-(2-hydroxyacetamido)-2-(2-(2-(prop-2-yn-1-yloxy)ethoxy)ethoxy)tetrahydro-2H-pyran-2-carboxylic acid]
12 | < 1000 | < 1000 | < 1000 | C#CCCCCCCCCO[C@]1(C(=O)O)C[C@H](O)[C@@H](NC(=O)CO)[C@H]([C@H](O)[C@H](O)CNC(=O)Cc2ccc(Cl)cc2)O1 [Compound 109, (2R,4S,5R,6R)-6-((1R,2R)-3-(2-(4-chlorophenyl)acetamido)-1,2-dihydroxypropyl)-2-(dec-9-yn-1-yloxy)-4-hydroxy-5-(2-hydroxyacetamido)tetrahydro-2H-pyran-2-carboxylic acid]
13 | 1000 to 10000 | < 1000 | 1000 to 10000 | C#CCOc1ccc(CO[C@]2(C(=O)O)C[C@H](O)[C@@H](NC(=O)CO)[C@H]([C@H](O)[C@H](O)CNC(=O)Cc3ccc(F)cc3)O2)cc1 [Compound 166, (2R,4S,5R,6R)-6-((1R,2R)-3-(2-(4-fluorophenyl)acetamido)-1,2-dihydroxypropyl)-4-hydroxy-5-(2-hydroxyacetamido)-2-((4-(prop-2-yn-1-yloxy)benzyl)oxy)tetrahydro-2H-pyran-2-carboxylic acid]
